# Measured values published in PubChem BioAssay (NCI).
#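 Five compound concentrations were applied to cells in 96-well plates for 48 hours; endpoints were derived by simple linear interpolation of the resulting dose-response curve. TGI: concentration producing complete growth inhibition.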 Where a SMILES comes first, the peptide text is derived from it. The star is where a group is joined. Fmoc = O=C(OCC1c2ccccc2-c2ccccc21)*; Boc = CC(C)(C)OC(=O)*
# How the values were obtained:
# Test in all cases: growth of human tumour cells (NCI), 48 h
# SK-MEL-28 melanoma = system: SK-MEL-28 melanoma
# NCI-H226 lung = system: NCI-H226 lung
# HCC-2998 colon = system: HCC-2998 colon
# UACC-62 melanoma = system: UACC-62 melanoma
# COLO 205 colon = system: COLO 205 colon
# NCI-H460 lung = system: NCI-H460 lung
# HS 578T breast = system: HS 578T breast
# SR leukemia = system: SR leukemia
# MDA-MB-231 breast = system: MDA-MB-231 breast
# CAKI-1 renal = system: CAKI-1 renal
Compound,TGI (SK-MEL-28 melanoma),TGI (NCI-H226 lung),TGI (HCC-2998 colon),TGI (UACC-62 melanoma),TGI (COLO 205 colon),TGI (NCI-H460 lung),TGI (HS 578T breast),TGI (SR leukemia),TGI (MDA-MB-231 breast),TGI (CAKI-1 renal)
CCOC(=O)c1c(N2CCCC2)[nH]c(=O)c(C(c2ccco2)c2c(O)c(C(=O)OCC)c(N3CCCC3)[nH]c2=O)c1O,> 100 µM,> 100 µM,> 100 µM,> 100 µM,> 100 µM,> 100 µM,> 100 µM,> 100 µM,> 100 µM,> 100 µM
CC(C)(C)OC(=O)NCCCCC(NC(=O)OCC1c2ccccc2-c2ccccc21)C(=O)N1CCCC1C(=O)NCC(N)=O (stereo not drawn) (Fmoc-Lys(Boc)-Pro-Gly-NH2; configuration not given here),> 100 µM,> 100 µM,> 100 µM,> 100 µM,99.2 µM,37.9 µM,> 100 µM,49.5 µM,> 100 µM,30.1 µM
O=C1/C(=C/c2ccccc2O)N=C(c2ccccc2)N1c1nc2ccccc2s1,> 100 µM,77.8 µM,35.4 µM,,,56.4 µM,58.4 µM,7.19 µM,95.1 µM,> 100 µM
O=C/C=C/c1ccco1,> 100 µM,> 100 µM,> 100 µM,> 100 µM,> 100 µM,,> 100 µM,> 100 µM,> 100 µM,> 100 µM
O=C1CCCC/C1=C\c1ccc(Br)cc1,31.6 µM,,44.4 µM,19.6 µM,32.8 µM,98.2 µM,52.3 µM,> 100 µM,37.7 µM,32.1 µM
COc1ccc(C(SCCO)(c2ccccc2)c2ccccc2)cc1,33.6 µM,30.2 µM,31.1 µM,28.1 µM,27.5 µM,27.5 µM,59.2 µM,> 100 µM,31 µM,32.2 µM
COC(=O)C1CCC(=O)N1C(c1ccc(OC)cc1)c1ccc(OC)cc1 (stereo unspecified),> 100 µM,> 100 µM,> 100 µM,> 100 µM,> 100 µM,> 100 µM,> 100 µM,> 100 µM,> 100 µM,> 100 µM
NC1CC2NC3CCCCC3NC2CC1N (stereo unspecified),> 100 µM,> 100 µM,> 100 µM,> 100 µM,> 100 µM,> 100 µM,> 100 µM,> 100 µM,> 100 µM,> 100 µM
NCCCNC1(c2cc3ccccc3s2)CCCCC1,4.59 µM,33.3 µM,2.98 µM,3.87 µM,3.45 µM,4.06 µM,30.2 µM,4.68 µM,14.2 µM,23 µM
O=C1[C@@H]2[C@@H](c3ccccc3)[C@]2(Cl)C(=O)[C@H]2[C@H](c3ccccc3)[C@@]12Cl,> 100 µM,> 100 µM,> 100 µM,> 100 µM,> 100 µM,> 100 µM,> 100 µM,> 100 µM,> 100 µM,> 100 µM
O=C(/C=C/c1ccc(/C=C/C(=O)c2ccc(O)cc2)cc1)c1ccc(O)cc1,> 100 µM,> 100 µM,> 100 µM,> 100 µM,> 100 µM,> 100 µM,> 100 µM,> 100 µM,> 100 µM,> 100 µM
CCSc1cc(=O)n(C)c(=O)n1C,> 100 µM,> 100 µM,> 100 µM,> 100 µM,> 100 µM,> 100 µM,> 100 µM,,> 100 µM,> 100 µM
Cn1/c(=N\S(=O)(=O)c2ccccc2)n(S(=O)(=O)c2ccccc2)c2ccccc21,> 100 µM,> 100 µM,,> 100 µM,> 100 µM,,> 100 µM,,> 100 µM,> 100 µM
CCOC(=O)NC(NC1=NCCS1)(C(=O)OCC)C(F)(F)F (stereo unspecified),> 100 µM,> 100 µM,> 100 µM,,> 100 µM,> 100 µM,> 100 µM,> 100 µM,> 100 µM,> 100 µM
CC(C)(C)c1cc(C2=NN(c3ccccc3)C(c3ccccc3)C2)cc(C(C)(C)C)c1O (stereo unspecified),> 100 µM,> 100 µM,,> 100 µM,> 100 µM,> 100 µM,> 100 µM,> 100 µM,> 100 µM,> 100 µM
Cc1ccc(-n2[nH]nc(C#N)c2=O)cc1,> 100 µM,> 100 µM,> 100 µM,> 100 µM,> 100 µM,> 100 µM,> 100 µM,,> 100 µM,> 100 µM
O=C(/C=C/c1ccc(O)c(O)c1)c1cc(O)cc(O)c1,31.2 µM,51.5 µM,,26.1 µM,31.1 µM,,70.5 µM,> 100 µM,28.8 µM,> 100 µM
COc1ccc(/C=C2\CCC(CNc3ccc(OC)cc3)C2=O)cc1 (stereo unspecified),37.5 µM,> 100 µM,48.1 µM,48 µM,31.9 µM,> 85.3 µM,> 100 µM,,35.7 µM,41 µM
Cn1c2ccccc2c2c(=O)[nH]c(=O)[nH]c21,> 100 µM,> 100 µM,> 100 µM,> 100 µM,> 100 µM,,> 100 µM,> 100 µM,> 100 µM,> 100 µM
CSc1c(C#N)c(N)nc2c(N=Nc3ccc(Cl)cc3)c(N)nn12,7.57 µM,37.9 µM,14.8 µM,8.77 µM,30.3 µM,> 45.6 µM,3.43 µM,,4.85 µM,34.5 µM
CCN1CCN(c2nc3ccc([N+](=O)[O-])cc3nc2C(=O)c2ccccc2)CC1,,33.3 µM,28.6 µM,31.2 µM,30 µM,51.4 µM,,31.8 µM,28.7 µM,30.5 µM
CN(C)c1nncc2[nH]cnc12,> 100 µM,> 100 µM,,> 100 µM,> 100 µM,> 100 µM,> 100 µM,> 100 µM,> 100 µM,> 100 µM
